# Assays:
# Assay in all cases: Cell proliferation assay (MTS)
# H520 = test system: H520
# Experimental: (§1) The sensitivity of a panel of human cancer cell lines to the effects of compounds was determined in a standard proliferation assay.
# (§2) Cells were plated in 96 well plates at densities of 1000-6000 cells per well in RPMI media containing 10% FBS. After incubation at 37° C. for 16 hours, various concentrations of compound were added to the assay plates. After incubation for an additional 72 h, the viable cells were determined by the addition of MTS reagent (Promega #3582) to each well for 2 h. MTS is a tetrazolium salt that is bioreduced by metabolically active cells in the presence of an electron coupling reagent to formazan. The formazan product was then quantitated by absorbance at 490 nm, as an indicator of the relative number of live cells. In order to determine the GI50 (concentration at which growth of cells was inhibited by 50%) the relative number of cells present at the time of drug addition was determined by comparison with the MTS readout before the drug was added, and this value was subtracted from the 72 hr value of untreated cells as a measure of cell growth during the assay.
# PAMC82 = format: cell-based, human
# Experimental: (§3) The sensitivity of a panel of human cancer cell lines to the effects of compounds was determined in a standard proliferation assay. Cell lines were sourced through the AstraZeneca Cell Bank.
# (§4) Cells were plated in 96 well plates at densities of 1000-6000 cells per well in RPMI media containing 10% FBS. After incubation at 37° C. for 16 hours, various concentrations of compound were added to the assay plates. After incubation for an additional 72 h, the viable cells were determined by the addition of MTS reagent (Promega #3582) to each well for 2 h. […] The formazan product was then quantitated by absorbance at 490 nm, as an indicator of the relative number of live cells. In order to determine the GI50 (concentration at which growth of cells was inhibited by 50%) the relative number of cells present at the time of drug addition was determined by comparison with the MTS readout before the drug was added, and this value was subtracted from the 72 hr value of untreated cells as a measure of cell growth during the assay.
# SNU368 = format: cell-based, human
# Experimental: as §1, §2
# MDAMB453 = format: cell-based, human
# Experimental: as §3, §2
# NOMO1 = format: cell-based, human
# Experimental: as §1, §2
# QGY7703 = format: cell-based, human
# Experimental: as §1, §2
# CC20 = format: cell-based, human
# Experimental: as §1, §2
# HCC1395 = format: cell-based, human
# Experimental: as §1, §4
# CALU6 = format: cell-based, human
# Experimental: as §3, §2
# 1A6 = format: cell-based, human
# Experimental: as §1, §2
# BEL7404 = format: cell-based, human
# Experimental: as §3, §2
# ZR751 = format: cell-based, human
# Experimental: as §3, §2
# MGHU3 = format: cell-based, human
# Experimental: as §3, §2
# UMUC3 = format: cell-based, human
# Experimental: as §1, §2
# SNU1 = format: cell-based, human
# Experimental: as §3, §2
# MCF7MDR+ = format: cell-based, human
# Experimental: as §3, §2
# HCC1187 = format: cell-based, human
# Experimental: as §3, §2
# HCC1937 = format: cell-based, human
# Experimental: as §1, §2
# 977 = format: cell-based, human
# Experimental: as §1, §2
# H838 = format: cell-based, human
# Experimental: as §1, §2
# H358 = format: cell-based, human
# Experimental: as §1, §4
# MHCC97L = format: cell-based, human
# Experimental: as §3, §2
# MIAPACA2 = format: cell-based, human
# Experimental: as §3, §2
# C99 = format: cell-based, human
# Experimental: as §1, §2
# H2286 = test system: H2286
# Experimental: as §1, §4
# SCABER = format: cell-based, human
# Experimental: as §3, §2
# COLO205 = format: cell-based, human
# Experimental: as §1, §4
# HCC95 = format: cell-based, human
# Experimental: as §3, §2
# H1975 = format: cell-based, human
# Experimental: as §3, §2
# THP1 = format: cell-based, human
# Experimental: as §3, §2
# PC9 = format: cell-based, human
# Experimental: as §1, §2
# HT29 = format: cell-based, human
# Experimental: as §1, §4
# OCUM1 = format: cell-based, human
# Experimental: as §3, §2
# SU8686 = format: cell-based, human
# Experimental: as §1, §4
# LUDLU1 = format: cell-based, human
# Experimental: as §1, §4
# RKO = format: cell-based, human
# Experimental: as §1, §2
# RS411 = format: cell-based, human
# Experimental: as §1, §2
# HCC1419 = format: cell-based, human
# Experimental: as §1, §2
# H1299 = format: cell-based, human
# Experimental: as §1, §2
# A549 = format: cell-based, human
# Experimental: as §1, §2
# SW780 = format: cell-based, human
# Experimental: as §1, §2
# PANC0203 = format: cell-based, human
# Experimental: as §1, §4
# OCIAML2 = format: cell-based, human
# Experimental: as §1, §2
# [1] = Homo sapiens, Stomach, PIK3CA WT
# [2] = Homo sapiens, Breast, PIK3CA WT
# [3] = Homo sapiens, Bladder, PIK3CA WT
smiles,measurement,setting,value
"CCn1nc(C2CCN(C(=O)CCO)CC2)nc1-c1cnc(N)c(-c2nnc(C(C)(C)C)o2)n1 [Example 3, 1-(4-(5-(5-amino-6-(5-tert-butyl-1,3,4-oxadiazol-2-yl)pyrazin-2-yl)-1-ethyl-1H-1,2,4-triazol-3-yl)piperidin-1-yl)-3-hydroxypropan-1-one]",Category,H520; H520,Resistant (resistant (GI50>1.0 μM))
same,GI50,"H520; Homo sapiens, NCI-H520",6.62 µM
same,Category,PAMC82,Resistant (resistant (GI50>1.0 μM))
same,GI50,PAMC82; [1],1.37 µM
same,Category,SNU368,Resistant (resistant (GI50>1.0 μM))
same,GI50,"SNU368; Homo sapiens, Liver, PIK3CA WT",1.6 µM
same,Category,MDAMB453,Sensitive (sensitive (GI50<=1.0 μM))
same,GI50,"MDAMB453; Homo sapiens, MDA-MB-453, Breast, PIK3CA MUT",0.456 µM
same,Category,NOMO1,Resistant (resistant (GI50>1.0 μM))
same,GI50,"NOMO1; Homo sapiens, NOMO-1, Blood/lymph, PIK3CA WT",2.17 µM
same,Category,QGY7703,Resistant (resistant (GI50>1.0 μM))
same,GI50,"QGY7703; Homo sapiens, QGY-7703, Liver, PIK3CA WT",11.1 µM
same,Category,CC20,Resistant (resistant (GI50>1.0 μM))
same,GI50,"CC20; Homo sapiens, Colon, PIK3CA WT",30 µM
same,Category,HCC1395,Resistant (resistant (GI50>1.0 μM))
same,GI50,HCC1395; [2],21.8 µM
same,Category,CALU6,Resistant (resistant (GI50>1.0 μM))
same,GI50,"CALU6; Homo sapiens, Calu-6, Lung, PIK3CA WT",26.2 µM
same,Category,1A6,Resistant (resistant (GI50>1.0 μM))
same,GI50,1A6; [3],30 µM
same,Category,BEL7404,Resistant (resistant (GI50>1.0 μM))
same,GI50,"BEL7404; Homo sapiens, BEL-7404, Liver, PIK3CA WT",14.9 µM
same,Category,ZR751,Resistant (resistant (GI50>1.0 μM))
same,GI50,"ZR751; Homo sapiens, ZR-75-1, Breast, PIK3CA WT",3.56 µM
same,Category,MGHU3,Resistant (resistant (GI50>1.0 μM))
same,GI50,MGHU3; [3],11.5 µM
same,Category,UMUC3,Resistant (resistant (GI50>1.0 μM))
same,GI50,UMUC3; [3],6.22 µM
same,Category,SNU1,Resistant (resistant (GI50>1.0 μM))
same,GI50,SNU1; [1],15 µM
same,Category,MCF7MDR+,Resistant (resistant (GI50>1.0 μM))
same,GI50,MCF7MDR+; [2],14.5 µM
same,Category,HCC1187,Sensitive (sensitive (GI50<=1.0 μM))
same,GI50,HCC1187; [2],0.509 µM
same,Category,HCC1937,Resistant (resistant (GI50>1.0 μM))
same,GI50,HCC1937; [2],30 µM
same,Category,977,Resistant (resistant (GI50>1.0 μM))
same,GI50,977; [3],4.42 µM
same,Category,H838,Resistant (resistant (GI50>1.0 μM))
same,GI50,"H838; Homo sapiens, NCI-H838, Lung, PIK3CA WT",30 µM
same,Category,H358,Resistant (resistant (GI50>1.0 μM))
same,GI50,"H358; Homo sapiens, NCI-H358, Lung, PIK3CA WT",4.64 µM
same,Category,MHCC97L,Resistant (resistant (GI50>1.0 μM))
same,GI50,"MHCC97L; Homo sapiens, Liver, PIK3CA WT",3.35 µM
same,Category,MIAPACA2,Resistant (resistant (GI50>1.0 μM))
same,GI50,"MIAPACA2; Homo sapiens, MIA PaCa-2, Pancreas, PIK3CA WT",24.2 µM
same,Category,C99,Resistant (resistant (GI50>1.0 μM))
same,GI50,"C99; Homo sapiens, Colon, PIK3CA WT",1.22 µM
same,Category,H2286; H2286,Resistant (resistant (GI50>1.0 μM))
same,GI50,"H2286; Homo sapiens, NCI-H2286",20 µM
same,Category,SCABER,Resistant (resistant (GI50>1.0 μM))
same,GI50,SCABER; [3],12.4 µM
same,Category,COLO205,Resistant (resistant (GI50>1.0 μM))
same,GI50,"COLO205; Homo sapiens, COLO 205, Colon, PIK3CA WT",8.93 µM
same,Category,HCC95,Resistant (resistant (GI50>1.0 μM))
same,GI50,"HCC95; Homo sapiens, Lung, PIK3CA WT",3.11 µM
same,Category,H1975,Resistant (resistant (GI50>1.0 μM))
same,GI50,"H1975; Homo sapiens, NCI-H1975, Lung, PIK3CA MUT",2.26 µM
same,Category,THP1,Sensitive (sensitive (GI50<=1.0 μM))
same,GI50,"THP1; Homo sapiens, THP-1, Blood/lymph, PIK3CA WT",0.528 µM
same,Category,PC9,Resistant (resistant (GI50>1.0 μM))
same,GI50,"PC9; Homo sapiens, PC-9, Lung, PIK3CA WT",30 µM
same,Category,HT29,Resistant (resistant (GI50>1.0 μM))
same,GI50,"HT29; Homo sapiens, HT-29, Colon, PIK3CA MUT",5.48 µM
same,Category,OCUM1,Resistant (resistant (GI50>1.0 μM))
same,GI50,OCUM1; [1],2.33 µM
same,Category,SU8686,Resistant (resistant (GI50>1.0 μM))
same,GI50,"SU8686; Homo sapiens, SU.86.86, Pancreas, PIK3CA WT",18 µM
same,Category,LUDLU1,Resistant (resistant (GI50>1.0 μM))
same,GI50,"LUDLU1; Homo sapiens, LUDLU-1, Lung, PIK3CA WT",4.65 µM
same,Category,RKO,Resistant (resistant (GI50>1.0 μM))
same,GI50,"RKO; Homo sapiens, Colon, PIK3CA MUT",4.32 µM
same,Category,RS411,Sensitive (sensitive (GI50<=1.0 μM))
same,GI50,"RS411; Homo sapiens, RS4-11, Blood/lymph, PIK3CA WT",0.0903 µM
same,Category,HCC1419,Sensitive (sensitive (GI50<=1.0 μM))
same,GI50,HCC1419; [2],0.78 µM
same,Category,H1299,Resistant (resistant (GI50>1.0 μM))
same,GI50,"H1299; Homo sapiens, NCI-H1299, Lung, PIK3CA WT",30 µM
same,Category,A549,Resistant (resistant (GI50>1.0 μM))
same,GI50,"A549; Homo sapiens, Lung, PIK3CA WT",10.2 µM
same,Category,SW780,Resistant (resistant (GI50>1.0 μM))
same,GI50,SW780; [3],19.2 µM
same,Category,PANC0203,Sensitive (sensitive (GI50<=1.0 μM))
same,GI50,"PANC0203; Homo sapiens, Panc 02.03, Pancreas, PIK3CA WT",0.963 µM
same,Category,OCIAML2,Resistant (resistant (GI50>1.0 μM))
same,GI50,"OCIAML2; Homo sapiens, OCI-AML2, Blood/lymph, PIK3CA WT",30 µM
